# Laboratory results reported in patent US10206860B2, “Biguanide preservation of precipitated calcium carbonate” (Colgate-Palmolive Company, priority 2009, dated 2019).
# Assay: Association of PHMB with PCC after drying (drum dryer)
# Assay type: physicochemical
# Settings: only water is evaporated
# Excerpt: Although PHMB is water soluble, with the drying process used for PCC (a drum dryer), only water is evaporated; the PHMB remains associated with the PCC.
substance,measurement,value
poly[(hexamethylene)biguanide] [PHMB],Association of PHMB with the PCC after the drying process,remains associated with the PCC after the drying process
